# Results taken from article PMC8795197, “Safety and activity of WX-0593 (Iruplinalkib) in patients with ALK- or ROS1-rearranged advanced non-small cell lung cancer: a phase 1 dose-escalation and dose-expansion trial” (Signal Transduction and Targeted Therapy, 2022).
# “Also recorded” adds a separate entry of the source. Where two headings read alike, the source gives them in different places.
# Key:
# [1] = Phase 1 dose-escalation phase: plasma pharmacokinetics; type: in vivo, human; conditions: for Tmax / AUC(0-t) / AUC(0-inf) / Cmax / MRT inf / half-life: human, plasma, oral; for Tmax / AUC(0-t) / AUC(0-inf) / Cmax / MRT inf / half-life / Cssmax / Cssmin / Racc_AUC / Racc_Cmax: mean (SD); for MRT inf: read-out: MRT0-∞; for half-life: read-out: T1/2z (converted)
# Method: Three patients were assigned to each dose level. In the dosing cohort of 30 mg, treatment included a single WX-0593 dose, followed by 7-day PK evaluation period, and subsequent daily oral dosing for continuous 21 days. In other dosing cohorts, WX-0593 was administered orally as a single dose in the 4-day PK run-in period, followed by dosing once per day in continuous 21-day cycles. The DLT observation period was the first cycle of WX-0593 treatment (the single-dose period and 21 days of multiple-dose period).
# In the dose-escalation phase, blood samples were collected at protocol-specified time points after single and multiple dose administration of WX-0593 in all dosing cohorts for assessment of PK parameters.
# Safety analysis was performed in the SS, which was comprised of all patients treated with one dose of WX-0593 and with safety data recorded. Efficacy analysis was performed in the FAS, which was defined as all patients treated with at least one dose of WX-0593. The PK analysis set included all patients treated with at least one dose of WX-0593 and with at least one evaluable PK sample.
# Descriptive statistics were carried out to summarize patients’ baseline characteristics and safety. […] All time-to-event data (PFS, TTP, DOR, and OS) and their corresponding 95% CIs were estimated by Kaplan–Meier methods. PK parameter analyses were done with Phoenix WinNonlin version 8.0. All other statistical analyses were conducted using SAS version 9.4.
# Blood sampling time points for single dose: Blood samples are collected before dosing and 0.5 h, 1 h, 2 h, 3 h, 4 h, 5 h, 6 h, 8 h, 12 h, 24 h, 32 h, 48 h, and 72 h after dosing (after adjustment according to the pharmacokinetic parameters of patients in the first dose arm).
# Blood sampling time points for repeated dosing: Repeated dosing starts 4 days after single dose administration. Blood samples are collected before repeated dosing on Days 7, 14, and 21 before repeated dosing, and within 24h after dosing (0.5 h, 1 h, 2 h, 3 h, 4 h, 5 h, 6 h, 8 h, 12 h, 24 h) for measurement of blood pharmacokinetic parameters.
# The plasma concentration of WX-0593 will be determined using LC-MS.
# [2] = molecular target: ALK wild type (Homo sapiens, UniProt Q9UM73); experiment: In vitro enzyme inhibition study; type: biochemical; conditions: difference in inhibitory activity within 3 times
# Description: The inhibitory activities were low for other serine, threonine, and tyrosine […], except for the EGFR wild type, within the tested concentration range.
# [3] = system: NCI-H1975 (EGFR mutant L858R/T790M); experiment: Cell proliferation inhibition assay; type: cell-based
# [4] = molecular target: M1 (Homo sapiens, UniProt P11229); experiment: GPCR antagonist screening assay; type: cell-based
# [5] = molecular target: M2 (Homo sapiens, UniProt P08172); experiment: GPCR antagonist screening assay; type: cell-based
# [6] = molecular target: Eta (Homo sapiens, UniProt P25101); experiment: GPCR antagonist screening assay; type: cell-based
# [7] = system: NCI-H3122 (EML4-ALK fusion gene positive) human NSCLC; experiment: CDX model: efficacy and exposure in plasma, tumor, brain, lung; type: in vivo
# Description: NCI-H3122 (EML4-ALK fusion gene positive) is an ALK wild type human NSCLC. […] Higher drug concentration in the lungs provides the material basis for the treatment of lung cancer.
# [8] = Mutagenicity study
# [9] = cynomolgus monkey, in vivo
# [10] = multiple dosing 120 mg (n = 11)
# [11] = multiple dosing 180 mg (n = 13)
# [12] = multiple dosing 240 mg (n = 12)
# ALK wild type, sequence (Q9UM73 19-1620): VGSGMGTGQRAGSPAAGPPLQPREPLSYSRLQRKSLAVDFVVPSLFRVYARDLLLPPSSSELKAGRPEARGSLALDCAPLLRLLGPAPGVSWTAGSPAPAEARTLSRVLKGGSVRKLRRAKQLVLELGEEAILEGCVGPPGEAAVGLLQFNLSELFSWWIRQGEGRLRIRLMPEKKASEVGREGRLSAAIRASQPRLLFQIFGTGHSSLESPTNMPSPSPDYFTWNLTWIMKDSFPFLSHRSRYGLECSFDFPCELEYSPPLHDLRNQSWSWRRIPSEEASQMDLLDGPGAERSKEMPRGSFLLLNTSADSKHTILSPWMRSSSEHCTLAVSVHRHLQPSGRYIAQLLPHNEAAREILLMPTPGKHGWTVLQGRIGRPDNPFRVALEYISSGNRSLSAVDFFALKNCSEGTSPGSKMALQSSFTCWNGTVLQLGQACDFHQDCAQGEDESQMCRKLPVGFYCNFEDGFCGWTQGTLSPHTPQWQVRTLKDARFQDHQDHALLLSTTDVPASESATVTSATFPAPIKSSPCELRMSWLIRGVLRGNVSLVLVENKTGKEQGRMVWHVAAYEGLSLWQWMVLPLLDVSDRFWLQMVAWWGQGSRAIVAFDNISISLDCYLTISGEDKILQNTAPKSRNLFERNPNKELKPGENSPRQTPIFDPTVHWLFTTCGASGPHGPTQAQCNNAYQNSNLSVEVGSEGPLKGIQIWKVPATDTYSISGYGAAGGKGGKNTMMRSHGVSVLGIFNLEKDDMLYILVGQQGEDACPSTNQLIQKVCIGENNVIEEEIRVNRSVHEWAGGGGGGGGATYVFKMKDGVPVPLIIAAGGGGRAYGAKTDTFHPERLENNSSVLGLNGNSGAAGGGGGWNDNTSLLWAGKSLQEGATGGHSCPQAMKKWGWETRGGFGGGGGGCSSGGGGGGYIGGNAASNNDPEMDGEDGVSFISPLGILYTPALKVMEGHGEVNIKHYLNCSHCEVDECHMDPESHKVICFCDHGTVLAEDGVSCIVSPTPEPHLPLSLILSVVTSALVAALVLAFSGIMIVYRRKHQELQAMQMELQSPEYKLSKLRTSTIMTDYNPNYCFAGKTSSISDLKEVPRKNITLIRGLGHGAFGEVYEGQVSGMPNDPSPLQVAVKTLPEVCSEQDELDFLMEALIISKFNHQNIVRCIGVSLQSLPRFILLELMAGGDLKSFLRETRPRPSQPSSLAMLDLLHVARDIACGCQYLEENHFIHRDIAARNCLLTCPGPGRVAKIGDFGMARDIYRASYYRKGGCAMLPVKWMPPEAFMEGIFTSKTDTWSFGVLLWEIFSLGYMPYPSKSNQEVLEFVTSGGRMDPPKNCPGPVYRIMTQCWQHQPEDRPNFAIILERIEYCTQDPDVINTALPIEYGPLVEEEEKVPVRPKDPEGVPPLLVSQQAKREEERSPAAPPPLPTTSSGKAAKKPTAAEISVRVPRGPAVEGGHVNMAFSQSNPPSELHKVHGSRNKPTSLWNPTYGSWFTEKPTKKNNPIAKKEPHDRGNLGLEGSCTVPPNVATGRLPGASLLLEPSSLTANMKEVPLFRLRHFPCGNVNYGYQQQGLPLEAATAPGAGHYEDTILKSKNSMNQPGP
# Eta, sequence (P25101 21-427): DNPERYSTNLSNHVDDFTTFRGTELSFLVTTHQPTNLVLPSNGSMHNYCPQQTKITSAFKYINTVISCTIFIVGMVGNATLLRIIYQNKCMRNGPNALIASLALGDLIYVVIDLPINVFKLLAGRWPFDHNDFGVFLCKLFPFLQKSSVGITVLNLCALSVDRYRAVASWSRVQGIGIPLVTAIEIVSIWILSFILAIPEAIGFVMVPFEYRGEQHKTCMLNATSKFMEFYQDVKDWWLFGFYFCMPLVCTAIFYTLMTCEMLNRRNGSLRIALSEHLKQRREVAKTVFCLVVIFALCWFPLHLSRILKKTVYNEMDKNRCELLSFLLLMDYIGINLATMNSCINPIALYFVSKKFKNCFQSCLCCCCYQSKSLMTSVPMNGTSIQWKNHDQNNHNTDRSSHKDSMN
# M2, sequence (P08172 whole entry): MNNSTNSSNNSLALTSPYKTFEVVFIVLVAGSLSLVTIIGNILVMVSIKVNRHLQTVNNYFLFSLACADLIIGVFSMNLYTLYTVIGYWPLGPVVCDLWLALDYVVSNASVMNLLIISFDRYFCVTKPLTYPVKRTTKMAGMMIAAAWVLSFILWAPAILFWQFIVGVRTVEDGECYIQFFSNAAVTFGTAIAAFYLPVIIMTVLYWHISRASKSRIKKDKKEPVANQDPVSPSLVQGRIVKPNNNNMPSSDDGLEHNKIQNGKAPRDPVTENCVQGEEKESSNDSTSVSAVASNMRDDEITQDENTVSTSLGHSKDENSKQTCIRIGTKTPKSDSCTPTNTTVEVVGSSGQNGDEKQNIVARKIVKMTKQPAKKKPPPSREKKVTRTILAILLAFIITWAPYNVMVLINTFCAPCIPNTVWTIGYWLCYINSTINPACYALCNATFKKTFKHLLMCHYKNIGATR
# M1, sequence (P11229 whole entry): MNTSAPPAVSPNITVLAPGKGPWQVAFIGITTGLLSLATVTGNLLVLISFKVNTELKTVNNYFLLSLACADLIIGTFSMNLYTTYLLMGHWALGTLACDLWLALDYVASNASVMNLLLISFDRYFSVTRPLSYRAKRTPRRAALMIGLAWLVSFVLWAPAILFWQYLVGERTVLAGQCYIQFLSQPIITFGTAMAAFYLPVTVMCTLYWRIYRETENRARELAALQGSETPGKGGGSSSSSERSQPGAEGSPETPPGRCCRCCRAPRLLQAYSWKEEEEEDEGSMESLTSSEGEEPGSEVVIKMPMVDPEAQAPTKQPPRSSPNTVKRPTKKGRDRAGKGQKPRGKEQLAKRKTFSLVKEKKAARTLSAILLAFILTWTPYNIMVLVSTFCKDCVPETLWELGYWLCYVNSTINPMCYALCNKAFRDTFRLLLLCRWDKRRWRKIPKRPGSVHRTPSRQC
compound,measurement,setting,value
COc1cc(N2CCC3(CCN(C)CC3)CC2)ccc1Nc1ncc(Cl)c(Nc2ccccc2P(C)(C)=O)n1 [WX-0593],"free Cavg,ss","[1]; 180 mg, once daily",127 nM
same,Tmax,"[1]; 30 mg, multiple dosing 30 mg (n = 3)",4.33 h
same,AUC(0-t),"[1]; 30 mg, multiple dosing 30 mg (n = 3), read-out: AUC0–24",1150 ng·h/mL
same,Tmax,"[1]; 30 mg, single dose 30 mg (n = 3)",2.32 h
same,AUC(0-t),"[1]; 30 mg, single dose 30 mg (n = 3), read-out: AUC0-t",1310 ng·h/mL
same,Tmax,"[1]; 60 mg, multiple dosing 60 mg (n = 3)",4.01 h
same,AUC(0-t),"[1]; 60 mg, multiple dosing 60 mg (n = 3), read-out: AUC0–24",4960 ng·h/mL
same,Tmax,"[1]; 60 mg, single dose 60 mg (n = 3)",1.33 h
same,AUC(0-t),"[1]; 60 mg, single dose 60 mg (n = 3), read-out: AUC0-t",3650 ng·h/mL
same,Tmax,"[1]; 90 mg, multiple dosing 90 mg (n = 8)",2.87 h
same,AUC(0-t),"[1]; 90 mg, multiple dosing 90 mg (n = 8), read-out: AUC0–24",4390 ng·h/mL
same,Tmax,"[1]; 90 mg, single dose 90 mg (n = 8)",1.69 h
same,AUC(0-t),"[1]; 90 mg, single dose 90 mg (n = 8), read-out: AUC0-t",5430 ng·h/mL
same,Tmax,"[1]; 120 mg, multiple dosing 120 mg (n = 11)",2.79 h
same,AUC(0-t),"[1]; 120 mg, multiple dosing 120 mg (n = 11), read-out: AUC0–24",6120 ng·h/mL
same,Tmax,"[1]; 120 mg, single dose 120 mg (n = 11)",1.81 h
same,AUC(0-t),"[1]; 120 mg, single dose 120 mg (n = 11), read-out: AUC0-t",7780 ng·h/mL
same,Tmax,"[1]; 180 mg, multiple dosing 180 mg (n = 13)",2.79 h
same,AUC(0-t),"[1]; 180 mg, multiple dosing 180 mg (n = 13), read-out: AUC0–24",7210 ng·h/mL
same,Tmax,"[1]; 180 mg, single dose 180 mg (n = 12)",2.29 h
same,AUC(0-t),"[1]; 180 mg, single dose 180 mg (n = 12), read-out: AUC0-t",6620 ng·h/mL
same,Tmax,"[1]; 240 mg, multiple dosing 240 mg (n = 12)",3.27 h
same,AUC(0-t),"[1]; 240 mg, multiple dosing 240 mg (n = 12), read-out: AUC0–24",12700 ng·h/mL
same,Tmax,"[1]; 240 mg, single dose 240 mg (n = 10)",2.5 h
same,AUC(0-t),"[1]; 240 mg, single dose 240 mg (n = 10), read-out: AUC0-t",15500 ng·h/mL
same,Tmax,"[1]; 300 mg, multiple dosing 300 mg (n = 2)",1.24 h
same,AUC(0-t),"[1]; 300 mg, multiple dosing 300 mg (n = 2), read-out: AUC0–24",23400 ng·h/mL
same,Tmax,"[1]; 300 mg, single dose 300 mg (n = 3)",2.71 h
same,AUC(0-t),"[1]; 300 mg, single dose 300 mg (n = 3), read-out: AUC0-t",14900 ng·h/mL
same,AUC(0-inf),[1]; single dose 30 mg (n = 3),1710 ng·h/mL
same,Cmax,[1]; single dose 30 mg (n = 3),105 ng/mL
same,MRT inf,[1]; single dose 30 mg (n = 3),20.7 h
same,half-life,[1]; single dose 30 mg (n = 3),15.5 h
same,AUC(0-inf),[1]; single dose 60 mg (n = 3),4060 ng·h/mL
same,Cmax,[1]; single dose 60 mg (n = 3),305 ng/mL
same,MRT inf,[1]; single dose 60 mg (n = 3),28.3 h
same,half-life,[1]; single dose 60 mg (n = 3),25.7 h
same,AUC(0-inf),[1]; single dose 90 mg (n = 8),6210 ng·h/mL
same,Cmax,[1]; single dose 90 mg (n = 8),474 ng/mL
same,MRT inf,[1]; single dose 90 mg (n = 8),24 h
same,half-life,[1]; single dose 90 mg (n = 8),21.9 h
same,AUC(0-inf),[1]; single dose 120 mg (n = 11),8120 ng·h/mL
same,Cmax,[1]; single dose 120 mg (n = 11),571 ng/mL
same,MRT inf,[1]; single dose 120 mg (n = 11),25.6 h
same,half-life,[1]; single dose 120 mg (n = 11),22.2 h
same,AUC(0-inf),[1]; single dose 180 mg (n = 12),7320 ng·h/mL
same,Cmax,[1]; single dose 180 mg (n = 12),401 ng/mL
same,MRT inf,[1]; single dose 180 mg (n = 12),27.9 h
same,half-life,[1]; single dose 180 mg (n = 12),23.9 h
same,AUC(0-inf),[1]; single dose 240 mg (n = 10),16900 ng·h/mL
same,Cmax,[1]; single dose 240 mg (n = 10),1000 ng/mL
same,MRT inf,[1]; single dose 240 mg (n = 10),25 h
same,half-life,[1]; single dose 240 mg (n = 10),22.9 h
same,AUC(0-inf),[1]; single dose 300 mg (n = 3),17100 ng·h/mL
same,Cmax,[1]; single dose 300 mg (n = 3),905 ng/mL
same,MRT inf,[1]; single dose 300 mg (n = 3),32.4 h
same,half-life,[1]; single dose 300 mg (n = 3),27.5 h
same,Cssmax,[1]; multiple dosing 30 mg (n = 3),95.13 (54.02) ng/mL
same,Cssmin,[1]; multiple dosing 30 mg (n = 3),25.00 (8.04) ng/mL
same,Racc_AUC,[1]; multiple dosing 30 mg (n = 3),116.256 (32.91) %
same,Racc_Cmax,[1]; multiple dosing 30 mg (n = 3),89.141 (35.00) %
same,Cssmax,[1]; multiple dosing 60 mg (n = 3),419.00 (128.24) ng/mL
same,Cssmin,[1]; multiple dosing 60 mg (n = 3),117.87 (59.10) ng/mL
same,Racc_AUC,[1]; multiple dosing 60 mg (n = 3),203.993 (32.03) %
same,Racc_Cmax,[1]; multiple dosing 60 mg (n = 3),150.689 (39.79) %
same,Cssmax,[1]; multiple dosing 90 mg (n = 8),324.38 (109.58) ng/mL
same,Cssmin,[1]; multiple dosing 90 mg (n = 8),103.65 (29.27) ng/mL
same,Racc_AUC,[1]; multiple dosing 90 mg (n = 8),149.978 (88.53) %
same,Racc_Cmax,[1]; multiple dosing 90 mg (n = 8),117.082 (97.12) %
same,Cssmax,[1]; [10],479.20 (151.70) ng/mL
same,Cssmin,[1]; [10],139.24 (34.22) ng/mL
same,Racc_AUC,[1]; [10],130.809 (36.42) %
same,Racc_Cmax,[1]; [10],111.519 (44.39) %
same,Cssmax,[1]; [11],529.38 (203.22) ng/mL
same,Cssmin,[1]; [11],164.10 (77.76) ng/mL
same,Racc_AUC,[1]; [11],174.265 (35.49) %
same,Racc_Cmax,[1]; [11],138.238 (26.54) %
same,Cssmax,[1]; [12],960.50 (234.47) ng/mL
same,Cssmin,[1]; [12],236.00 (56.80) ng/mL
same,Racc_AUC,[1]; [12],160.210 (77.95) %
same,Racc_Cmax,[1]; [12],127.749 (58.74) %
same,Cssmax,[1]; multiple dosing 300 mg (n = 2),1685.00 (657.61) ng/mL
same,Cssmin,[1]; multiple dosing 300 mg (n = 2),623.50 (402.34) ng/mL
same,Racc_AUC,[1]; multiple dosing 300 mg (n = 2),309.507 (151.00) %
same,Racc_Cmax,[1]; multiple dosing 300 mg (n = 2),223.005 (88.95) %
same,dose proportionality of exposure,"[1]; once-daily 30 to 300 mg, AUC0–24",increased in an approximately dose-proportion manner
same,inhibitory activity compared with brigatinib,[2],comparable with the activity of brigatinib; also recorded: comparable to brigatinib
same,growth inhibition,[3],somewhat inhibits the growth
same,IC50,[4],> 10 µM
same,IC50,[5],> 10 µM
same,IC50,[6],0.5 µM
same,drug exposure in tumor tissue relative to brigatinib,[7]; 5 mg/kg each,2 times
same,efficacy compared with brigatinib,[7]; 5 mg/kg each,comparable
same,plasma drug exposure compared with brigatinib,[7]; 5 mg/kg each,comparable
same,drug exposure in the lungs relative to brigatinib,"[7]; 5 mg/kg each, 1 h after dosing",approximately 2 times
same,drug exposure in the brain relative to brigatinib,"[7]; 5 mg/kg each, 8 h after dosing",approximately 2 times
same,drug exposure in the lungs relative to brigatinib,"[7]; 5 mg/kg each, 8 h after dosing",approximately 3 times
same,treatment efficacy versus dose,"[7]; 2.5, 5, 10 mg/kg",increased with dose
same,rank of drug concentrations in tissues,"[7]; 1 h and 8 h after dosing, all dose arms (2.5, 5, 10 mg/kg)",lungs > tumor > brain
same,mutagenic activity,[8],no mutagenic activity
same,MTD as multiple of the effective dose in nude mice,[9],20 times
